For eleven compounds, IC50 and inhibition results are on record in patent publication US11135209B2, “Compositions and methods for inhibiting protein kinases” (UNIVERSITY OF HOUSTON SYSTEM, priority 2017, dated 2021).

Experiment [1] deals with Recombinant RIPK2 protein (Homo sapiens, UniProt O43353). In words: Receptor Interacting Protein Kinase 2 (RIPK2) enzyme assay (ADP-Glo). To be noted: for inhibition at 0.5 µM: Conc. 500 nM. The experiment is classed as biochemical. As for the experimental part:
Receptor Interacting Protein Kinase 2 (RIPK2) Enzyme Assay
Recombinant RIPK2 protein (20 ng per reaction) is diluted in the reaction buffer consisting of 40 mM Tris (pH 7.5); 20 mM MgCl2; 0.1 mg/ml BSA; 50 μM DTT. Diluted protein is added to low volume white 384 well plates (2 μL/well). Inhibitors are diluted in reaction buffer (final 25% DMSO), 1 μL is added to each well and incubated 5 min at room temperature. Reactions are initiated by the addition of 2 μL of 100 μM ATP and 1 mg/ml RS repeat peptide (SignalChem) in the reaction buffer. Plates are sealed with plastic coverslips and incubated at room temperature for 2 h. Reactions are stopped by the addition of 5 μL of ADP-Glo reagent (Promega) and ADP generation reaction is performed for 40 min at room temperature. Luminescence signal is generated by the addition of 10 μL of Kinase detection reagent (Promega) for 30 min at room temperature Luminescence signals are determined using appropriate luminescence plate-reader (typical integration time 0.3-1 sec). To calculate percent inhibition, average background signal is subtracted from test well and maximal signal wells. Inhibition, %=(1−(test signal/maximal signal))*100. The percent inhibition at a specified concentration is determined or IC50 values are calculated based on a dose range of inhibitor concentrations using non-linear regression in GraphPad Prism software.

Experiment [2] deals with NOD2 cellular signaling in HEK-Blue cells expressing human NOD2. In words: NOD2 cell signaling assay (HEK-Blue, NFkB-SEAP reporter, L18-MDP stimulated). In kind it is cell-based. To be noted: read-out: IC50 (nM) HEKBlue RIPK2. As for the experimental part: NOD2 Cell Signaling Assay.
HEK-Blue cells expressing human NOD2 and NFkB-SAEP reporter (Invivogen) are seeded into 96 well clear plates at 7.5×10^3 cells per well in 100 μL of DMEM media supplemented with 10% FBS and 1% antibiotic-antimycotic mix. Cells are allowed to attach for 48 h in 5% CO2 tissue culture incubator at 37° C. On the morning of the experiment, media in the wells is replaced with 100 pt of HEK-Blue detection media (Invivogen). Cells are treated with the inhibitors, diluted in DMSO (0.5 μL per well) for 15 min in 5% CO2 tissue culture incubator at 37° C. After that, cells are stimulated by the addition of 1 ng/well L18-MDP (Invivogen). Cells are incubated in 5% CO2 tissue culture incubator at 37° C. for 8 h and absorbance, corresponding to the SEAP in the media, is determined in Wallac3V plate reader (Perkin Elmer). Inhibition, %=(1−((sample signal-unstimulated and DMSO treated cells)/(L18-MDP stimulated and DMSO treated cells−unstimulated and DMSO treated cells)))*100. IC50 values are calculated based on a dose range of inhibitor concentrations using non-linear regression in GraphPad Prism software.

Experiment [3] addresses T1, human ALK2 (Homo sapiens, UniProt Q04771).
T1 sequence (Q04771 21-509): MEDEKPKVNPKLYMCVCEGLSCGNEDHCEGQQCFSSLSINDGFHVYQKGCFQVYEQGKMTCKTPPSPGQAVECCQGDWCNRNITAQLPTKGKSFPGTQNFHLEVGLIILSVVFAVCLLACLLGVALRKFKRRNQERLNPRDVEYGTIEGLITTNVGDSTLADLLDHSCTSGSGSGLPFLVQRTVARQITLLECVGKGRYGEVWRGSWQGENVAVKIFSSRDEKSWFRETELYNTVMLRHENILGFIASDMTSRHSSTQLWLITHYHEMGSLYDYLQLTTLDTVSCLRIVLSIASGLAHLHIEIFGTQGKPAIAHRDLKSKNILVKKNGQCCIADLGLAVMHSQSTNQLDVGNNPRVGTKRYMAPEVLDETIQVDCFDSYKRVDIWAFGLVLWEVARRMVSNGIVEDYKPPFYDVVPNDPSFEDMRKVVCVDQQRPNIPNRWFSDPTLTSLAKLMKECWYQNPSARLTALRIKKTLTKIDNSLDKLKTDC
In words: Activin-Like Kinase 2 (ALK2) enzyme assay. The experiment is classed as biochemical. As for the experimental part:
Activin-Like Kinase 2 (ALK2) Enzyme Assay
Enzyme inhibitory activity was evaluated in a standard kinase enzyme assay by incubating human ALK2 with the protein substrate casein (1 mg/mL) and γ-^33ATP (10 μM) in the presence of various concentrations of test compounds (10 nM-100 μM). After 30 min the amount of ^33P-casein was determined.

Sequence of Recombinant RIPK2 protein (O43353 whole entry, species assumed): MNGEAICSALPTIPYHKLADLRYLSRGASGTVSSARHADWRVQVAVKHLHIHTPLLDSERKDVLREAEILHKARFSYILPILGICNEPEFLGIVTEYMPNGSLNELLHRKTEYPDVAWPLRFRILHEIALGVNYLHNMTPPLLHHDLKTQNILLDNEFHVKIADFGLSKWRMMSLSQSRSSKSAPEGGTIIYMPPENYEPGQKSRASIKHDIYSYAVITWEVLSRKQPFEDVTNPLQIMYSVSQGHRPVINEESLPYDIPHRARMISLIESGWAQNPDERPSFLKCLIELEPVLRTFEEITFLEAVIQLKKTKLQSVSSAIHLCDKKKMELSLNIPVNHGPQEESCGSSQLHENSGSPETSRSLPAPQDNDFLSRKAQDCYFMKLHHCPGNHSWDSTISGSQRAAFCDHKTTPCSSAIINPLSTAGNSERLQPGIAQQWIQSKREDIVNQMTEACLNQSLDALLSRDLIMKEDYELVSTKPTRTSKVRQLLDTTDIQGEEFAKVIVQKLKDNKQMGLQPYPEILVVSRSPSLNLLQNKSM

The term IC50 denotes the concentration that inhibits the measured activity by half. On to `COc1cc(NS(=O)(=O)C(C)C)cc(-c2cc(-c3ccc(N4CCNCC4)cc3)cnc2N)c1` [CSLP8], for which the IC50 in experiment [1] is above 10 nM; in experiment [2] it was above 100 nM; in experiment [3], above 1 nM.

Consider `CCCS(=O)(=O)Nc1cc(-c2cc(-c3ccc(S(C)(=O)=O)cc3)cnc2N)ccc1OC` [CSLP34], for which the results for the IC50 in experiment [1], in experiment [2] and in experiment [3] were above 100 nM, above 1000 nM and above 10000 nM, respectively.

In the case of `CCCS(=O)(=O)Nc1cc(F)cc(-c2cc(-c3ccc(N4CCNCC4)cc3)cnc2N)c1` [CSLP38, N-(3-(2-Amino-5-(4-(piperazin-1-yl)phenyl)pyridin-3-yl)-5-fluorophenyl)propane-1-sulfonamide], the IC50 is above 10 nM in experiment [1], above 100 nM in experiment [2] and above 10 nM in experiment [3].

For `CCCS(=O)(=O)Nc1cc(-c2cc(-c3ccc(N4CCNCC4)cc3)cnc2N)cc(OC)c1C` [CSLP19, N-(5-(2-Amino-5-(4-(piperazin-1-yl)phenyl)pyridin-3-yl)-3-methoxy-2-methylphenyl)propane-1-sulfonamide], the IC50 in experiment [1] was above 1000 nM; in experiment [2], above 1000 nM; in experiment [3], above 100 nM.

Turning to `COc1cc(-c2cc(-c3ccc(N4CCNCC4)cc3)cnc2N)cc(NS(=O)(=O)c2ccccc2)c1C` [CSLP51, N-(5-(2-Amino-5-(4-(piperazin-1-yl)phenyl)pyridin-3-yl)-3-methoxy-2-methylphenyl)benzenesulfonamide], the IC50 in experiment [1], in experiment [2] and in experiment [3] was above 1000 nM in each case.

For the compound `CC(C)Oc1cc(NS(=O)(=O)C(C)C)cc(-c2cc(-c3ccc(N4CCNCC4)cc3)cnc2N)c1` [CSLP29, N-(3-(2-Amino-5-(4-(piperazin-1-yl)phenyl)pyridin-3-yl)-5-isopropoxyphenyl)propane-2-sulfonamide], the values for the IC50 in experiment [1], in experiment [2] and in experiment [3] were above 100 nM, above 100 nM and above 100000 nM, respectively.

Consider `CCCS(=O)(=O)Nc1cc(-c2cc(-c3ccc(N4CCNCC4)cc3)cnc2N)cc(C)c1C` [CSLP45, N-(5-(2-Amino-5-(4-(piperazin-1-yl)phenyl)pyridin-3-yl)-2,3-dimethylphenyl)propane-1-sulfonamide], for which the IC50 in experiment [1], in experiment [2] and in experiment [3] was above 100 nM in each case.

For `CCCS(=O)(=O)Nc1cc(-c2cc(-c3ccc(N4CCNCC4)cc3)cnc2N)cc(F)c1OC` [CSLP37, N-(5-(2-Amino-5-(4-(piperazin-1-yl)phenyl)pyridin-3-yl)-3-fluoro-2-methoxyphenyl)propane-1-sulfonamide], the half-maximal inhibitory concentration (IC50) in experiment [1] was above 10 nM; in experiment [2] it was above 10 nM; in experiment [3] it was above 100 nM.

One may read the inhibition as the change of the read-out against control, counted positive when it falls. For the compound `CCCS(=O)(=O)Nc1ccc(-c2cc(-c3ccc(N4CCNCC4)cc3)cnc2C)cc1OC` [CSLP1, N-(2-methoxy-4-(2-methyl-5-(4-(piperazin-1-yl)phenyl)pyridin-3-yl)phenyl)propane-1-sulfonamide], the inhibition at 0.5 µM in experiment [1] is below 0%. Further, the IC50 in experiment [2] was above 1000 nM; in experiment [3], above 100000 nM.

For `CCS(=O)(=O)Nc1cc(OC)cc(-c2cc(-c3ccc(N4CCNCC4)cc3)cnc2C)c1` [CSLP15, N-(3-Methoxy-5-(2-methyl-5-(4-(piperazin-1-yl)phenyl)pyridin-3-yl)phenyl)ethanesulfonamide], the values for the IC50 in experiment [1], in experiment [2] and in experiment [3] were above 100 nM, above 1000 nM and above 10 nM, respectively. The inhibition at 0.5 µM in experiment [1] was 73%.

With `CCCS(=O)(=O)Nc1cc(-c2cc(-c3ccc(N4CCNCC4)cc3)cnc2N)cc(Cl)c1C` [CSLP40, N-(5-(2-Amino-5-(4-(piperazin-1-yl)phenyl)pyridin-3-yl)-3-chloro-2-methylphenyl)propane-1-sulfonamide], the IC50 in experiment [1] was above 100 nM; in experiment [2], above 1000 nM; in experiment [3], above 100 nM.
